Like-named read-outs stand apart in the source and are kept apart here. Positions of bridges follow the written chain, without caps; N, C: chain ends. Chains are numbered I, II in the order given. No end group written: not given here.
Tests used:
[1] = tested on: basal cAMP in cells expressing RXFP1; format: cell-based
[2] = tested on: relaxin-stimulated cAMP via RXFP1; format: cell-based
[3] = tested on: basal cAMP in cells expressing RXFP2 or pcDNA; assay: Effect of PDE inhibition on basal cAMP, HEK293 expressing RXFP2 or pcDNA; format: cell-based; settings: IBMX 100 μM, 30 min; RXFP1 versus RXFP2 or pcDNA
RXFP2/1 = assay: Single-cell FRET cAMP; settings: for EC50: pmEpac2, RXFP2/1
RXFP2 [4] = molecular target: T1, RXFP2 (Homo sapiens, UniProt Q8WXD0); assay: Single-cell FRET cAMP; settings: for cellular response to sub-picomolar peptide: RXFP2, pmEpac2
RXFP2 [5] = molecular target: T1, RXFP2; assay: Single-cell FRET cAMP
RXFP1 [6] = molecular target: T2, RXFP1 (Rattus norvegicus, UniProt Q6R6I6); assay: Single-cell FRET cAMP; settings: rat cardiac fibroblasts
T2 sequence (Q6R6I6 1-758): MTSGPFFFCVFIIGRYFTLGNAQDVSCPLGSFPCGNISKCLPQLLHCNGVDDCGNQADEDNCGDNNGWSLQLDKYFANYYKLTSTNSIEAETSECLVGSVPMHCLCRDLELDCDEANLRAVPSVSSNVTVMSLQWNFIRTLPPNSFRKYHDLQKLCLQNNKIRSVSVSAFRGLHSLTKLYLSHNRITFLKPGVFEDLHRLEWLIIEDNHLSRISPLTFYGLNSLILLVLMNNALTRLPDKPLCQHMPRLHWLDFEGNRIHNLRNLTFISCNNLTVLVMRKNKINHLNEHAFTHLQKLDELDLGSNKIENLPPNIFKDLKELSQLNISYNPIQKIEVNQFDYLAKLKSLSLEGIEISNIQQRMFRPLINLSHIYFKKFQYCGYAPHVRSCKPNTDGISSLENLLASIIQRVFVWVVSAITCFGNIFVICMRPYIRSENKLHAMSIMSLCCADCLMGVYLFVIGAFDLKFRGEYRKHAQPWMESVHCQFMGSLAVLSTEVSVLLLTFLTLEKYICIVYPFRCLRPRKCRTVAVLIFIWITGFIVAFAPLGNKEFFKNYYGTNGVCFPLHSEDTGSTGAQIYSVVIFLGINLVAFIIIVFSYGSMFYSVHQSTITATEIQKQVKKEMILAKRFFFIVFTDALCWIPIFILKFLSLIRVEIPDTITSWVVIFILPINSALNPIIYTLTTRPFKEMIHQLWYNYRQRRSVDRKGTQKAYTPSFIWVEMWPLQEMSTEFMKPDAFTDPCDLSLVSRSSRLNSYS

RXFP1 [7] = molecular target: T3, RXFP1 (Homo sapiens, UniProt Q9HBX9); assay: Single-cell FRET cAMP; settings: HeLa, forskolin 1 μM
T3 sequence (Q9HBX9 1-757): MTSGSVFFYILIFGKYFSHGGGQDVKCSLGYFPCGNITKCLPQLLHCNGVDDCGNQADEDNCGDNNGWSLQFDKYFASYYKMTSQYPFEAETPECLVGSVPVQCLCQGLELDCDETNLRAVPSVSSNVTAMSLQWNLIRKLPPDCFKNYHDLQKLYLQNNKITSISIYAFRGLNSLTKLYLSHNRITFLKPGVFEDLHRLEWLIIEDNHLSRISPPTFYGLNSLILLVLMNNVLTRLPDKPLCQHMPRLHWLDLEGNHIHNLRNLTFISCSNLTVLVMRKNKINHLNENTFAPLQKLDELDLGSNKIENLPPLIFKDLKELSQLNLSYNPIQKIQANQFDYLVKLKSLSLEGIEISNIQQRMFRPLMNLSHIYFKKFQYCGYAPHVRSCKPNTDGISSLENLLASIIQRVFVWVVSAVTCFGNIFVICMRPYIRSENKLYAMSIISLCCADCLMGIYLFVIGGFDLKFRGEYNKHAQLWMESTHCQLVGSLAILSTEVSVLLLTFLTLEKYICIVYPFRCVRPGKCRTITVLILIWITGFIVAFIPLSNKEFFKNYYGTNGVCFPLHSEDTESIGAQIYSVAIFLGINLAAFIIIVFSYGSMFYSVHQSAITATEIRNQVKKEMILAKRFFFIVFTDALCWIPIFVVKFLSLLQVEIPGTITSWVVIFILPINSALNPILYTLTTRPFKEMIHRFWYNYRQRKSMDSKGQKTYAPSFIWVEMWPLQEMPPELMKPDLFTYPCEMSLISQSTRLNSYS

[8] = tested on: AC2-HA / RXFP1 signalosome; assay: AC2-HA co-immunoprecipitation from HEK293 cells co-expressing FLAG-RXFP1; settings: 5 min, n=3
tRXFP1-747 = assay: Single-cell FRET cAMP; settings: tRXFP1-747, glEpac2
RXFP1 [9] = molecular target: T3, RXFP1; assay: Single-cell FRET cAMP; settings: first phase, biphasic fit, 5 min AUC, glEpac2, HEK293-RXFP1; mean±s.e.m.
tRXFP1-703 = assay: Single-cell FRET cAMP
RXFP1 S755A = assay: Single-cell FRET cAMP; settings: glEpac2
RXFP1 [10] = molecular target: T3, RXFP1; assay: Single-cell FRET cAMP
HEK293 cells = assay: Single-cell FRET control, HEK293 cells expressing pmEpac2 alone; settings: no RXFP1, relaxin 1 nM
RXFP1/2 = assay: Single-cell FRET cAMP; settings: relaxin 10 aM–100 μM, RXFP1/2, pmEpac2
RXFP1 [11] = tested on: RXFP1
[12] = tested on: PDE4D3 / RXFP1 signalosome; assay: PDE4D3; settings: 5 min, n=3

T1 sequence (Q8WXD0 whole entry, species assumed): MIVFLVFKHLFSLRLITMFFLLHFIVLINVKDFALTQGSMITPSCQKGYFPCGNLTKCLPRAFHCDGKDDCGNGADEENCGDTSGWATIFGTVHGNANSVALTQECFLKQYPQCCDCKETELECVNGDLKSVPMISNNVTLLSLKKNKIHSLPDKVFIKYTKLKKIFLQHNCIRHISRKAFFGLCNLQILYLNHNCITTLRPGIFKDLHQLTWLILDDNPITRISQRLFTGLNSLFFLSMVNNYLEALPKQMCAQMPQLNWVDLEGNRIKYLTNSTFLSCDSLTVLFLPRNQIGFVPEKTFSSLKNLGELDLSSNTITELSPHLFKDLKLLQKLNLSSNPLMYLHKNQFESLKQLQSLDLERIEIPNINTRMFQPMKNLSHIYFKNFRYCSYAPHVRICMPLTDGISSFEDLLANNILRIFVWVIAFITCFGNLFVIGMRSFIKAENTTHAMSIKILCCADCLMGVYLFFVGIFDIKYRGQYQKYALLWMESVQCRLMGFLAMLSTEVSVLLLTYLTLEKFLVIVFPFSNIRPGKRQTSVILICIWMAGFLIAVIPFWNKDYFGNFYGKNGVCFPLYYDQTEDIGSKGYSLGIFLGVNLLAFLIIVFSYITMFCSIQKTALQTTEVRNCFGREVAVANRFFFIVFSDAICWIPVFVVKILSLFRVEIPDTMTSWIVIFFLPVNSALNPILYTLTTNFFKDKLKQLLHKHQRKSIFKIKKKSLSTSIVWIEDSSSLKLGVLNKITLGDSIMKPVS

O=S(=O)(NCCNC/C=C/c1ccc(Br)cc1)c1cccc2cnccc12 [H89]
effect on basal cAMP [1]: basal cAMP levels were significantly increased | effect on cAMP response to sub-picomolar (10 fM) relaxin [2]: no further increase in cAMP

CC(C)Cn1c(=O)n(C)c(=O)c2[nH]cnc21 [IBMX, 3-isobutyl-1-methylxanthine]
effect on basal cAMP [1]: significantly increased basal cAMP | effect on basal cAMP, RXFP1-dependence [3]: significantly increased basal cAMP only in cells expressing RXFP1 | effect on biphasic relaxin concentration–response curve [2]: abolished the biphasic concentration–response curve | effect on cAMP response to sub-picomolar (10 fM) relaxin [2]: no further increase following stimulation with 10 fM relaxin

CCCCCCOC(=O)[C@]1(O)C[C@@H]2O[C@@]1(C)n1c3ccccc3c3c4c(c5c6ccccc6n2c5c31)C(=O)NC4 [KT5720]
effect on basal cAMP [1]: basal cAMP levels were significantly increased | effect on cAMP response to sub-picomolar (10 fM) relaxin [2]: no further increase in cAMP

O=C(Nc1cc(C(=O)Nc2ccc(S(=O)(=O)O)cc2S(=O)(=O)O)cc(C(=O)Nc2ccc(S(=O)(=O)O)cc2S(=O)(=O)O)c1)Nc1cc(C(=O)Nc2ccc(S(=O)(=O)O)cc2S(=O)(=O)O)cc(C(=O)Nc2ccc(S(=O)(=O)O)cc2S(=O)(=O)O)c1 [NF449]
effect on cAMP response to sub-picomolar (10 fM) relaxin [2]: significantly inhibited the 10 fM relaxin response

CCCCOc1cc(CC2CNC(=O)N2)ccc1OC (centres unmarked) [Ro 20-1724]
effect on basal cAMP [1]: significantly increased basal cAMP | effect on cAMP response to sub-picomolar (10 fM) relaxin [2]: no further increase following stimulation with 10 fM relaxin

CN(C(=O)CCCOc1ccc2[nH]c(=O)ccc2c1)C1CCCCC1 [cilostamide]
effect on basal cAMP [1]: no significant effect | effect on cAMP response to sub-picomolar (10 fM) relaxin [2]: remained responsive to stimulation with 10 fM relaxin

C[C@H]1O[C@@H](n2cnc3c(N)ncnc32)C[C@@H]1OP(=O)(OCCSC(=O)C(C)(C)C)OCCSC(=O)C(C)(C)C [ddAB, 2′,5′-dd-3′-AMP-bis(tBuSATE)]
effect on cAMP response to sub-picomolar (10 fM) relaxin [2]: completely abolished the response to 10 fM relaxin

O=C1OC2(c3ccccc31)c1ccc(O)c(O)c1Oc1c2ccc(O)c1O [gallein]
effect on cAMP response to sub-picomolar (10 fM) relaxin [2]: completely abolished the cAMP accumulation stimulated by 10 fM relaxin

I: PTPEMREKLCGHHFVRALVRVCGGPRWSTEA / II: AAATNPARYCCLSGCTQQDLLTLCPY (disulfide I:10-II:11, I:22-II:24, II:10-II:15) [INSL3]
cAMP accumulation at sub-picomolar concentrations (RXFP2/1; RXFP2/1, pmEpac2): not the closely related peptide INSL3, increased cAMP accumulation at sub-picomolar concentrations | EC50 (RXFP2/1; read-out: INSL3 EC50, mean±s.e.m.): 0.26 ± 0.04 nM | EC50 (RXFP2 [4]): 1.42 ± 0.92 nM | cellular response to sub-picomolar peptide (RXFP2 [4]): no evidence of a cellular response | EC50 (RXFP2 [5]): 7.74 ± 1.67 nM

PTX
effect on shape of relaxin concentration–response curve (RXFP1 [6]; PTX pre-treatment): revealed a biphasic, stimulatory concentration–response curve | effect on cAMP response to sub-picomolar (10 fM) relaxin [2]: did not affect the cAMP response to sub-picomolar concentrations of relaxin | effect on maximal / classical cAMP response to relaxin [2]: the maximal cAMP response to relaxin was enhanced | effect on shape of relaxin concentration–response curve (RXFP1 [7]; PTX 100 ng/ml, 16 h): revealed the biphasic concentration–response curve

Relaxin
association of AC2 with RXFP1 / stimulatory sub-complex ([8]; relaxin 10 nM): reduces the association between RXFP1 and PDE4D3 or AC2 | association of AC2 with RXFP1 / stimulatory sub-complex ([8]; relaxin 10 fM): not 10 fM | cAMP response to sub-picomolar relaxin, effect of mutation (tRXFP1-747): no effect | maximal cAMP response to relaxin (tRXFP1-747): reduced through tRXFP1-747 | Relaxin EC50 1 (RXFP1 [9]): 140.34±20.73 aM | response to sub-picomolar relaxin (tRXFP1-703; tRXFP1-703 (truncated following helix 8), glEpac2): remained responsive to stimulation with sub-picomolar concentrations of relaxin | maximal cAMP response to relaxin (tRXFP1-703; tRXFP1-703, glEpac2): reduced following truncation | cAMP response to sub-picomolar relaxin, effect of mutation (RXFP1 S755A): no effect | cAMP accumulation at sub-picomolar concentrations (RXFP2/1; RXFP2/1, pmEpac2): increased cAMP accumulation at sub-picomolar concentrations | Relaxin EC50 1 (RXFP2/1; first phase, pmEpac2, RXFP2/1 (RXFP2-ectodomain, RXFP1-transmembrane/C-terminus), mean±s.e.m.): 7.86±1.30 aM | EC50 (RXFP2/1; read-out: Relaxin EC50 2, second phase, mean±s.e.m.): 0.33 ± 0.08 nM | biphasic cAMP response (RXFP2/1; relaxin 10 aM–100 μM, RXFP2/1, pmEpac2): a biphasic response was evident | cellular response to sub-picomolar peptide (RXFP2 [4]): no evidence of a cellular response | EC50 (RXFP2 [4]; read-out: Relaxin EC50 2, pmEpac2, HEK293-RXFP2, 5 min AUC, mean±s.e.m.): 18.1 ± 3.84 nM | cAMP response to sub-picomolar relaxin (RXFP1 [6]; forskolin 1 μM, without PTX): significant increase in cAMP, which then declined within the classical concentration range | Relaxin EC50 1 (RXFP1 [10]; first phase, biphasic fit, 5 min AUC, pmEpac2, HEK293-RXFP1, mean±s.e.m.): 10.93±0.92 aM | saturation of pmEpac2 sensor / response relative to FIP (RXFP1 [10]; maximal relaxin 100 nM versus FIP (10 μM forskolin, 100 μM IBMX, 100 nM PGE1)): did not saturate the pmEpac2 sensor | cAMP response (HEK293 cells): no detectable cAMP response | biphasic cAMP response (RXFP1/2): not RXFP1/2 | cAMP response (RXFP1 [11]): no detectable cAMP response | EC50 (RXFP2 [5]; read-out: Relaxin EC50 2, glEpac2, HEK293-RXFP2, 5 min AUC, mean±s.e.m.): 57.7 ± 6.94 nM | association of PDE4D3 with RXFP1 / regulatory sub-complex ([12]; relaxin 10 nM): reduces the association between RXFP1 and PDE4D3 or AC2 | association of PDE4D3 with RXFP1 / regulatory sub-complex ([12]; relaxin 10 fM): not 10 fM | cAMP response to relaxin (RXFP1 [7]; without PTX, glEpac2): significant concentration-dependent increase in cAMP, which was maintained within the classical relaxin concentration range

cholera toxin
effect on basal cAMP [1]: potentiated basal | effect on cAMP response to sub-picomolar (10 fM) relaxin [2]: response to 10 fM relaxin reaching the maximal relaxin response
